Columns and labels:
KB = assay: Cytotoxicity against human KB cells after 72 hrs by MTT assay; format: functional, cell-based
[1] = Cytotoxicity against human KB/VCR cells after 72 hrs by MTT assay; format: functional, cell-based
A549 = assay: Cytotoxicity against human A549 cells after 72 hrs by MTT assay; format: functional, cell-based; settings: A549, 72 h
[2] = Cytotoxicity against human 95-D cells after 72 hrs by MTT assay; format: functional, cell-based
[3] = Anticancer activity against human 95-D cells xenografted in BALB/c mouse assessed as inhibition of tumor growth at 50 mg/kg, ig administered 2 to 3 times a week for 20 days measured post last dose; format: functional; settings: po, 480 h, route intragastric
[4] = Anticancer activity against human 95-D cells xenografted in BALB/c mouse at 50 mg/kg, ig administered 2 to 3 times a week for 20 days measured post last dose relative to control; format: functional; settings: route intragastric
Mus musculus [5] = assay: Toxicity in BALB/c mouse xenografted with human 95-D cells assessed as body weight at 50 mg/kg, ig administered 2 to 3 times a week for 20 days measured post last dose (reference value: 21.6 +/- 0.6 gm); format: organism-based; design: dose 50 mg/kg, route intragastric; settings: in vivo, po, 480 h
[6] = Anticancer activity against human 95-D cells xenografted in BALB/c mouse at 10 mg/kg administered intramuscularly every other day for 20 days measured post last dose relative to control; format: functional; settings: route intramuscular
Mus musculus [7] = assay: Toxicity in BALB/c mouse xenografted with human 95-D cells assessed as body weight at 10 mg/kg administered intramuscularly every other day for 20 days measured post last dose (reference value: 21.6 +/- 0.6 gm); format: organism-based; design: dose 10 mg/kg, route intramuscular; settings: in vivo, im, 480 h
[8] = Anticancer activity against human 95-D cells xenografted in BALB/c mouse assessed as inhibition of tumor growth at 10 mg/kg administered intramuscularly every other day for 20 days measured post last dose; format: functional; settings: im, 480 h, route intramuscular

Compound	IC50 (KB)	IC50 [1]	IC50 (A549)	IC50 [2]	inhibition in vivo at 50 mg/kg [3]	Activity [4]	Activity (Mus musculus [5])	Activity [6]	Activity (Mus musculus [7])	inhibition in vivo at 10 mg/kg [8]
COc1cc([C@@H]2c3cc4c(cc3[C@@H](Nc3ccc(CCN5CCCCC5)cc3)[C@H]3COC(=O)[C@H]23)OCO4)cc(OC)c1O	4.21 µM	19.1 µM	13.4 µM	17.2 µM						
CCN(CC)CCc1ccc(N[C@@H]2c3cc4c(cc3[C@@H](c3cc(OC)c(O)c(OC)c3)[C@H]3C(=O)OC[C@@H]32)OCO4)cc1	0.45 µM	1.53 µM	0.4 µM	9.84 µM						
COc1cc([C@@H]2c3cc4c(cc3[C@@H](Nc3ccc(NC(=O)c5ccc(OC(C)=O)cc5)cc3)[C@H]3COC(=O)[C@H]23)OCO4)cc(OC)c1O	1.91 µM	8.48 µM	2.68 µM	0.42 µM	57.3%	46.3%	16.8 g			
COc1cc([C@@H]2c3cc4c(cc3[C@@H](Nc3ccc(OCCO)cc3)[C@H]3COC(=O)[C@H]23)OCO4)cc(OC)c1O	2.88 µM	6.51 µM	4.54 µM	4.13 µM				45.4%	17 g	37.5%
COc1cc([C@@H]2c3cc4c(cc3[C@@H](Nc3ccc(CC(=O)N5CCCC5)cc3)[C@H]3COC(=O)[C@H]23)OCO4)cc(OC)c1O	1.52 µM	2.2 µM	15.9 µM	> 50 µM						
CCN(CC)CCc1cccc(N[C@@H]2c3cc4c(cc3[C@@H](c3cc(OC)c(O)c(OC)c3)[C@H]3C(=O)OC[C@@H]32)OCO4)c1	0.77 µM	3.87 µM	7.49 µM	14.6 µM						
COc1cc([C@@H]2c3cc4c(cc3[C@@H](Nc3ccc(CCN(C)C)cc3)[C@H]3COC(=O)[C@H]23)OCO4)cc(OC)c1O	2.42 µM	3.95 µM	19 µM	17.1 µM						
COc1cc([C@@H]2c3cc4c(cc3[C@@H](Nc3cccc(CCN5CCCCC5)c3)[C@H]3COC(=O)[C@H]23)OCO4)cc(OC)c1O	0.43 µM	1.78 µM	2.75 µM	7.4 µM						
COc1cc([C@@H]2c3cc4c(cc3[C@@H](O[C@@H]3O[C@@H]5CO[C@@H](C)O[C@H]5[C@H](O)[C@H]3O)[C@H]3COC(=O)[C@H]23)OCO4)cc(OC)c1O [ETOPOSIDE]	4.61 µM	83.4 µM	2.56 µM	20.2 µM						
COc1cc([C@@H]2c3cc4c(cc3[C@@H](Nc3ccc(COCCO)cc3)[C@H]3COC(=O)[C@H]23)OCO4)cc(OC)c1O	3.12 µM	7.39 µM	5.11 µM	0.55 µM						
COc1cc([C@@H]2c3cc4c(cc3[C@@H](Nc3ccc(CCN5CCCC5)cc3)[C@H]3COC(=O)[C@H]23)OCO4)cc(OC)c1O	0.21 µM	1.57 µM	0.24 µM	0.036 µM						
COc1cc([C@@H]2c3cc4c(cc3[C@@H](Nc3cccc(CCN5CCCC5)c3)[C@H]3COC(=O)[C@H]23)OCO4)cc(OC)c1O	0.39 µM	1.85 µM	3.91 µM	1.17 µM						
COc1cc([C@@H]2c3cc4c(cc3[C@@H](Nc3ccc(COCCCCO)cc3)[C@H]3COC(=O)[C@H]23)OCO4)cc(OC)c1O	6.6 µM	9.55 µM	8.5 µM	20.3 µM						
COc1cc([C@@H]2c3cc4c(cc3[C@@H](N(C(=O)c3ccc([N+](=O)[O-])cc3)c3ccc(NC(=O)c5ccc([N+](=O)[O-])cc5)cc3)[C@H]3COC(=O)[C@H]23)OCO4)cc(OC)c1O	> 50 µM	> 50 µM	> 50 µM	15.7 µM						
COc1cc([C@@H]2c3cc4c(cc3[C@@H](Nc3ccc(CC(=O)N5CCCCC5)cc3)[C@H]3COC(=O)[C@H]23)OCO4)cc(OC)c1O	0.4 µM	2.33 µM	5.2 µM	25.8 µM						
COc1cc([C@@H]2c3cc4c(cc3[C@@H](Nc3ccc(NC(=O)c5ccc([N+](=O)[O-])cc5)cc3)[C@H]3COC(=O)[C@H]23)OCO4)cc(OC)c1O	> 50 µM	13.7 µM	11 µM	3.41 µM						

Compound	IC50 (KB)	IC50 [1]	IC50 (A549)	IC50 [2]	inhibition in vivo at 50 mg/kg [3]	Activity [4]	Activity (Mus musculus [5])	Activity [6]	Activity (Mus musculus [7])	inhibition in vivo at 10 mg/kg [8]
COc1cc([C@@H]2c3cc4c(cc3[C@@H](Nc3ccc(NC(=O)c5ccc(F)cc5)cc3)[C@H]3COC(=O)[C@H]23)OCO4)cc(OC)c1O	2.91 µM	5.31 µM	1.56 µM	1.08 µM						
CCN(CC)C(=O)Cc1cccc(N[C@@H]2c3cc4c(cc3[C@@H](c3cc(OC)c(O)c(OC)c3)[C@H]3C(=O)OC[C@@H]32)OCO4)c1	0.42 µM	27.2 µM	4.78 µM	> 50 µM						
COc1cc([C@@H]2c3cc4c(cc3[C@@H](Nc3ccc(CCN(C(C)C)C(C)C)cc3)[C@H]3COC(=O)[C@H]23)OCO4)cc(OC)c1O	0.44 µM	2.2 µM	0.49 µM	10 µM						
COc1cc([C@@H]2c3cc4c(cc3[C@@H](Nc3ccc(NC(=O)c5ccc(Br)cc5)cc3)[C@H]3COC(=O)[C@H]23)OCO4)cc(OC)c1O	8.75 µM	5.72 µM	18.9 µM	1.66 µM						
COc1cc([C@@H]2c3cc4c(cc3[C@@H](Nc3ccc(CCN5CCOCC5)cc3)[C@H]3COC(=O)[C@H]23)OCO4)cc(OC)c1O	0.78 µM	1.27 µM	1.94 µM	11.5 µM						
COc1cc([C@@H]2c3cc4c(cc3[C@@H](Nc3cccc(CCN5CCOCC5)c3)[C@H]3COC(=O)[C@H]23)OCO4)cc(OC)c1O	0.48 µM	2.09 µM	5.1 µM	14.8 µM						
COc1cc([C@@H]2c3cc4c(cc3[C@@H](Nc3ccc(NC(=O)CCc5ccccc5)cc3)[C@H]3COC(=O)[C@H]23)OCO4)cc(OC)c1O	6.88 µM	3.7 µM	3.31 µM	1.15 µM				62.4%	20.2 g	9.2%
COc1cc([C@@H]2c3cc4c(cc3[C@@H](Nc3ccc(NC(=O)c5ccc(Cl)cc5)cc3)[C@H]3COC(=O)[C@H]23)OCO4)cc(OC)c1O	22.1 µM	13.1 µM	19.5 µM	6.56 µM						
COc1cc([C@@H]2c3cc4c(cc3[C@@H](Nc3ccc(COCCCO)cc3)[C@H]3COC(=O)[C@H]23)OCO4)cc(OC)c1O	6 µM	5.08 µM	7.45 µM	12 µM						
COc1ccc(CCC(=O)Nc2ccc(N[C@@H]3c4cc5c(cc4[C@@H](c4cc(OC)c(O)c(OC)c4)[C@H]4C(=O)OC[C@@H]43)OCO5)cc2)cc1	> 50 µM	3.08 µM	> 50 µM	1.23 µM						
COc1cc([C@@H]2c3cc4c(cc3[C@@H](Nc3cccc(CN5CCCCC5)c3)[C@H]3COC(=O)[C@H]23)OCO4)cc(OC)c1O	0.97 µM	3.44 µM	0.5 µM	0.2 µM						
COc1cc([C@@H]2c3cc4c(cc3[C@@H](N(C(=O)c3ccc(Cl)cc3)c3ccc(NC(=O)c5ccc(Cl)cc5)cc3)[C@H]3COC(=O)[C@H]23)OCO4)cc(OC)c1O	> 50 µM	14.2 µM	> 50 µM	19.6 µM						
COc1ccc(C(=O)Nc2ccc(N[C@@H]3c4cc5c(cc4[C@@H](c4cc(OC)c(O)c(OC)c4)[C@H]4C(=O)OC[C@@H]43)OCO5)cc2)cc1	6.76 µM	9.28 µM	3.41 µM	0.44 µM						
COc1cc([C@@H]2c3cc4c(cc3[C@@H](Nc3ccc(NC(=O)CCc5ccccc5[N+](=O)[O-])cc3)[C@H]3COC(=O)[C@H]23)OCO4)cc(OC)c1O	6.69 µM	5.3 µM	8.43 µM	0.41 µM						
COc1cc([C@@H]2c3cc4c(cc3[C@@H](Nc3ccc(NC(=O)/C=C/c5ccccc5)cc3)[C@H]3COC(=O)[C@H]23)OCO4)cc(OC)c1O	6.53 µM	2.8 µM	> 50 µM	1.25 µM						
